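A five-concentration, 48-hour dose response in 96-well plates underlies each endpoint, interpolated linearly between surrounding concentrations. Abbreviation: GI50, concentration required for 50% inhibition of growth. The concentration for full growth arrest is given as TGI.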
Legend:
Assay in all cases: NCI anticancer screen, dose series, 48 h
[1] = test system: HCC-2998 colon
[2] = test system: OVCAR-5 ovarian
[3] = test system: LOX IMVI melanoma
[4] = test system: NCI/ADR-RES ovarian
[5] = test system: OVCAR-8 ovarian
[6] = test system: A498 renal
[7] = test system: U251 CNS
[8] = test system: NCI-H23 lung
[9] = test system: MDA-MB-435
[10] = test system: UO-31 renal
[11] = test system: IGROV1 ovarian
[12] = test system: MALME-3M melanoma
[13] = test system: SK-MEL-5 melanoma
[14] = test system: SNB-75 CNS
[15] = test system: SK-MEL-2 melanoma
[16] = test system: RXF 393 renal
[17] = test system: CCRF-CEM leukemia
[18] = test system: SR leukemia
[19] = test system: MDA-MB-231 breast
[20] = test system: RPMI-8226 leukemia
[21] = test system: SK-OV-3 ovarian
[22] = test system: SF-268 CNS
[23] = test system: A549 NSCLC
[24] = test system: KM12 colon
[25] = test system: UACC-62 melanoma
[26] = test system: SW-620 colon
[27] = test system: HOP-62 NSCLC
[28] = test system: NCI-H522 lung
[29] = test system: PC-3 prostate

O=C(Nc1ncc(Cc2ccccc2)s1)c1sc2ccccc2c1Cl
GI50 [1]: 552 nM | TGI [1]: 12300 nM | GI50 [2]: 2210 nM | TGI [2]: 64200 nM | GI50 [3]: 1070 nM | TGI [3]: > 61800 nM | GI50 [4]: 573 nM | TGI [4]: 35100 nM | GI50 [5]: 2540 nM | TGI [5]: > 100000 nM | GI50 [6]: 286 nM | TGI [6]: 5590 nM | GI50 [7]: 593 nM | TGI [7]: 26000 nM | GI50 [8]: 2250 nM | TGI [8]: > 61600 nM | GI50 [9]: 250 nM | TGI [9]: 805 nM | GI50 [10]: 1410 nM | TGI [10]: > 82300 nM | GI50 [11]: 903 nM | TGI [11]: 61500 nM | GI50 [12]: 809 nM | TGI [12]: 24300 nM | GI50 [13]: 63.4 nM | TGI [13]: 691 nM | GI50 [14]: 368 nM | TGI [14]: 12900 nM | GI50 [15]: 534 nM | TGI [15]: > 64400 nM | GI50 [16]: 665 nM | TGI [16]: 10600 nM | GI50 [17]: 593 nM | TGI [17]: > 100000 nM | GI50 [18]: 522 nM | TGI [18]: > 100000 nM | GI50 [19]: 1210 nM | TGI [19]: 19300 nM | GI50 [20]: 1330 nM | TGI [20]: > 100000 nM | GI50 [21]: 2770 nM | TGI [21]: 93700 nM | GI50 [22]: 1370 nM | TGI [22]: > 100000 nM | GI50 [23]: 853 nM | TGI [23]: > 50400 nM | GI50 [24]: 68.4 nM | TGI [24]: 29000 nM | GI50 [25]: 147 nM | TGI [25]: 17800 nM | GI50 [26]: 476 nM | TGI [26]: > 100000 nM | GI50 [27]: 1230 nM | TGI [27]: > 62400 nM | GI50 [28]: 739 nM | TGI [28]: 15800 nM | GI50 [29]: 948 nM | TGI [29]: > 60400 nM
